Laboratory results: ChEMBL document CHEMBL1201862, “PubChem BioAssay data set” (2004)
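Grown in 96-well plates, cells were treated for 48 hours with each compound at five concentrations. Insufficient inhibition: endpoint recorded as highest concentration tested. Abbreviation: GI50, concentration required for 50% inhibition of growth.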 Active and inactive are the calls of the source. Rule as the data show it: active = GI50 up to about 1.1 µM and inactive = higher.

Assays:
Assay in all cases: NCI tumour cell line growth inhibition, 48 h
SK-MEL-28 = system: SK-MEL-28
A498 = system: A498
CCRF-CEM = system: CCRF-CEM
IGROV-1 = system: IGROV-1
SF-539 = system: SF-539
SF-295 = system: SF-295
CAKI-1 = system: CAKI-1
OVCAR-8 = system: OVCAR-8
UACC-62 = system: UACC-62
MOLT-4 = system: MOLT-4
OVCAR-3 = system: OVCAR-3
DU-145 = system: DU-145
Malme-3M = system: Malme-3M
UO-31 = system: UO-31
COLO 205 = system: COLO 205
SK-OV-3 = system: SK-OV-3
KM12 = system: KM12
OVCAR-5 = system: OVCAR-5
EKVX = system: EKVX
TK-10 = system: TK-10

Measured: GI50

CCOC(=O)c1c(Br)c(-c2ccc(OC)cc2)c(Br)n1C
inactive: SK-MEL-28 37.6 µM | A498 14.6 µM | CCRF-CEM 16.3 µM | IGROV-1 22.2 µM | SF-539 20.7 µM | SF-295 25.2 µM | CAKI-1 > 10 µM | OVCAR-8 27.1 µM | UACC-62 5.09 µM | MOLT-4 8.57 µM | OVCAR-3 17.1 µM | DU-145 32.2 µM | Malme-3M 12.1 µM | UO-31 12.2 µM | COLO 205 27.6 µM | SK-OV-3 18.5 µM | KM12 11.4 µM | OVCAR-5 72.3 µM | EKVX 16.8 µM | TK-10 20.7 µM

COc1ccc([C@H]2CC(=O)C[C@H](c3ccc(OC)cc3)C23C(=O)c2ccccc2C3=O)cc1
inactive: SK-MEL-28 9.64 µM | A498 > 100 µM | CCRF-CEM 3.68 µM | IGROV-1 5.28 µM | SF-539 5.04 µM | SF-295 3.95 µM | CAKI-1 3.06 µM | OVCAR-8 9.75 µM | UACC-62 4 µM | MOLT-4 4.79 µM | OVCAR-3 2.97 µM | DU-145 16.4 µM | Malme-3M 5 µM | UO-31 17.3 µM | COLO 205 2.64 µM | SK-OV-3 3.97 µM | KM12 4.13 µM | OVCAR-5 12.6 µM | EKVX 4.59 µM | TK-10 7.82 µM

COc1ccc(C(=O)/C=C/c2ccc(Oc3cc(C(=O)/C=C/c4ccc(O)cc4)c(O)cc3OC)cc2)c(O)c1 [RHUSCHALCONE I]
inactive: SK-MEL-28 2.74 µM | A498 1.67 µM | CCRF-CEM 2.27 µM | IGROV-1 2.59 µM | SF-539 2.19 µM | SF-295 6.41 µM | CAKI-1 4.1 µM | OVCAR-8 3.45 µM | UACC-62 3.27 µM | MOLT-4 2.52 µM | OVCAR-3 4.3 µM | DU-145 5.96 µM | Malme-3M 17.2 µM | UO-31 3.59 µM | COLO 205 4.34 µM | SK-OV-3 9.86 µM | KM12 2.65 µM | OVCAR-5 4.19 µM | EKVX 4.01 µM | TK-10 4.06 µM
